Assay type in all cases: cell-based
For assay [1], the system named is human iPSC-derived cardiomyocytes. The experiment in a line: INa density in hiPSC-CM infected with AAV9 encoding the peptide, patch-clamp. Particulars: hiPSC-CM infected 48 hours with AAV9 encoding DECA-11; vs. Ad-td-Tomato infected cardiomyocytes; P<0.05.
The subject of assay [2] is human Kir2.1 channels. Briefly: IKir2.1 density, whole-cell patch-clamp in CHO cells co-transfected with Kir2.1 and the cDNA encoding the peptide. Particulars: CHO cells co-transfected with cDNA SEQ ID NO: 5; vs. cells transfected only with Kir2.1 channels; P<0.05. The procedure: (§1) To do this, CHO cells were transfected with the cDNA that encodes the human cardiac channels (Kir2.1) that generate IK1 (Origene, USA) (SEQ ID NO: 22), co-transfecting cells, or not, with the cDNA described in SEQ ID NO: 5. […] The sampling frequency was 4 kHz and the data, filtered at a frequency of 2 kHz, were stored on hard disks for further analysis using the CLAMPFIT application of the pCLAMP software. The current (IKir2.1) was recorded by applying 250 ms pulses from -120 to +20 mV from a holding potential of -60 mV. The density of the same was obtained by normalising the amplitude of IKir2.1 at the end of the pulse by the capacitance of each cell (pA/pF). […] Like in example 2.1, each point represents the mean±SEM of "n" experiments obtained from at least 3 different CHO cell plates. One-way ANOVA followed by the Tukey test. * P<0.05 vs. cells transfected only with Kir2.1 channels.
On the technique in general: In patch-clamp work, channel activity is measured electrically.

Assay [3] has as its system minimal promoter of the human SCN5A gene. Briefly: Luciferase promoter assay in hEK-293 cells, SCN5A. Particulars: hEK-293 cells co-transfected with cDNA SEQ ID NO: 5; 48 hours after transfection. The procedure: (§2) 48 hours after transfection, luciferase assays were performed using the LightSwitch Luciferase Assay reagent, also from Active Motif, and a Berthold luminometer. All assays were performed in triplicate and each point represents the mean of each technical triplicate.

The subject of assay [4] is human minimal promoter of the SCN5A gene. The experiment in a line: Luciferase assay in hEK-293 cells, minimal promoter of SCN5A. Particulars: hEK-293, co-transfected with cDNA SEQ ID NO: 5, 48 hours. The method, then: as §2
Assay [5] concerns human iPSC-derived cardiomyocytes. The experiment in a line: INa, IK1 and INaL by patch-clamp in cardiomyocytes infected with adeno-associated virus encoding the peptide. Particulars: hiPSC-CM. From the text: One-way ANOVA followed by the Tukey test.
In assay [6] the test system is human Nav1.5 channels. The experiment in a line: Density of INa by whole-cell patch-clamp in CHO cells co-transfected with the cDNA encoding the peptide. Particulars: CHO cells expressing Nav1.5 plus cDNA of the peptide, vs cells transfected only with Nav1.5 channels. The method, then:
To analyse the effect of the peptides designed in example 1 on INa and IK1, the cDNA that encodes SEQ ID NO: 3 or SEQ ID NO: 4, described in SEQ ID NO: 5 and 20, respectively, was cloned into a pcDNA3.1^(+)® vector (Invitrogen) for transfection of Chinese hamster ovary (CHO) cells that were in turn transfected with the cDNA that encodes the human Nav1.5 channels (SEQ ID NO: 21). The CHO cells were further co-transfected with the EBO-pcD leu 2 vector (0.5 µg), which encodes the expression of the CD8 surface antigen. The subsequent addition of anti-CD8 antibody, bonded to Dynabeads M450® microspheres, allowed the cells that had been transfected to be identified. […] The currents were recorded at 20-22°C using an Axopatch 200B amplifier, filtered at half the sampling frequency and stored in a computer for further analysis. […] The capacitive current artefacts generated after the application of pulses from 0 mV to +10 mV were recorded at 50 kHz (filtered at 10 kHz) to calculate the capacitance of the cell, the access resistance and the input impedance. […] INa was recorded by applying 50 ms pulses from a holding potential of -120 mV to potentials between -80 and +50 mV in 5 mV increments. […]

The test system of assay [7] is human Kir2.1 channels. Briefly: Density of IKir2.1 by whole-cell patch-clamp in CHO cells co-transfected with the cDNA encoding the peptide. Particulars: CHO cells expressing Kir2.1 plus cDNA of the peptide (SEQ ID NO: 5), vs cells transfected only with Kir2.1 channels. The method, then: as §1
The mark [8] stands for this setting: infection 48 hours before recording, vs Ad-td-Tomato.

Where no end group is shown, it is not given here.

As to “RFTRESLAAIE (listed as Homo sapiens) [SEQ ID NO: 3, 11-amino acid peptide, amino acids 15-25 of human Nav1.5]”, in assay [1], the “density of INa” value is “significantly increase”. For the same sequence, the “density of IKir2.1” value in assay [2] was “significantly increase”. Moreover, the “effect on the minimal promoter of the human SCN5A gene (luciferase)” value in assay [3] was “no significant effect”.

Consider RFTRESLAAIE [DECA-11, RFTRESLAAIE], for which, in assay [4], the “effect on the minimal promoter of the human SCN5A gene” value is reported as “no significant effect”. Besides, the INaL result in assay [5] (TTX (10 µM) sensitive sustained current as percentage of the current peak) is given as “does not increase INaL”. In assay [5] (setting [8]), the “density of IK1” value was “significantly increase the density of INa and IK1”; the “density of INa” value is “significantly increase the density of INa and IK1”. Further, the “density of INa” value in assay [6] is on record as “significantly increase the density of INa”. For the same sequence, the “density of IKir2.1” value in assay [7] is given as “significantly increase the density of IKir2.1”.
